Key:
Assay in all cases: relative viability (nuclei count vs DMSO), 5 days (fraction); higher = more cells survive
[1] = tested on: H3255
Method in brief: (§1)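 Lung cancer cell lines in 1536-well plates got either a single drug or a fixed anchor-drug dose together with five library-drug doses (not always all listed) in √10 steps, by pin tool, on the day after seeding. Nuclei were counted after 5 days, and relative viability is the treated-to-vehicle ratio of nuclei counts. Values are medians of duplicate plates.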

[2] = tested on: NCI-H1793
Method in brief: as §1

[3] = tested on: NCI-H441
Method in brief: as §1

[4] = tested on: 201T
Method in brief: as §1

[5] = tested on: NCI-H1734
Method in brief: as §1

[6] = tested on: NCI-H1563
Method in brief: as §1

[7] = tested on: NCI-H2405
Method in brief: as §1

[8] = tested on: PC-14
Method in brief: as §1

[9] = tested on: NCI-H322M
Method in brief: as §1

[10] = tested on: LOU-NH91
Method in brief: as §1

[11] = tested on: EPLC-272H
Method in brief: as §1

[12] = tested on: NCI-H647
Method in brief: as §1

[13] = tested on: UMC-11
Method in brief: as §1

[14] = tested on: SW 900
Method in brief: as §1

[15] = tested on: HCC-15
Method in brief: as §1

[16] = tested on: NCI-H2023
Method in brief: as §1

[17] = tested on: NCI-H520
Method in brief: as §1

[18] = tested on: COR-L23
Method in brief: as §1

[19] = tested on: NCI-H3122
Method in brief: as §1

[20] = tested on: NCI-H2347
Method in brief: as §1

[21] = tested on: NCI-H1650
Method in brief: as §1

[22] = tested on: NCI-H2170
Method in brief: as §1

With `O=c1cc(N2CCOCC2)oc2c(-c3cccc4c3sc3ccccc34)cccc12` + COc1cccc2cc(-c3nc([C@H]4CC[C@H](C(=O)O)CC4)n4ncnc(N)c34)[nH]c12 [OSI-027] (partner 0.5 µM) the relative viability ([1]; first compound 0.01 µM) was 0.659, the relative viability ([1]; first compound 0.03162 µM) was 0.503 and the relative viability ([1]; first compound 0.1 µM) was 0.584. It also gave a relative viability ([1]; first compound 0.3162 µM) of 0.668, a relative viability ([1]; first compound 1 µM) of 0.536 and a relative viability ([2]; first compound 0.01 µM) of 0.33. For the same compound, the relative viability ([2]; first compound 0.1 µM) was 0.287, the relative viability ([2]; first compound 0.3162 µM) was 0.251 and the relative viability ([2]; first compound 1 µM) was 0.247. The relative viability ([3]; first compound 0.01 µM) was 0.679, the relative viability ([3]; first compound 0.03162 µM) was 0.617 and the relative viability ([3]; first compound 0.1 µM) was 0.537. It also gave a relative viability ([3]; first compound 0.3162 µM) of 0.614, a relative viability ([3]; first compound 1 µM) of 0.648 and a relative viability ([4]; first compound 0.01 µM) of 0.811. For the same compound, the relative viability ([4]; first compound 0.03162 µM) was 0.832, the relative viability ([4]; first compound 0.1 µM) was 0.715 and the relative viability ([4]; first compound 0.3162 µM) was 0.721. The relative viability ([4]; first compound 1 µM) was 0.645, the relative viability ([5]; first compound 0.01 µM) was 0.697 and the relative viability ([5]; first compound 0.03162 µM) was 0.599. The relative viability ([5]; first compound 0.1 µM) was 0.579, the relative viability ([5]; first compound 0.3162 µM) was 0.67 and the relative viability ([5]; first compound 1 µM) was 0.609. The relative viability ([6]; first compound 0.01 µM) was 0.695, the relative viability ([6]; first compound 0.03162 µM) was 0.741 and the relative viability ([6]; first compound 0.1 µM) was 0.773. For the same compound, the relative viability ([6]; first compound 0.3162 µM) was 0.794, the relative viability ([6]; first compound 1 µM) was 0.697 and the relative viability ([7]; first compound 0.01 µM) was 0.717. The relative viability ([7]; first compound 0.03162 µM) was 0.615, the relative viability ([7]; first compound 0.1 µM) was 0.564 and the relative viability ([7]; first compound 0.3162 µM) was 0.663. For the same compound, the relative viability ([7]; first compound 1 µM) was 0.685, the relative viability ([8]; first compound 0.01 µM) was 0.954 and the relative viability ([8]; first compound 0.03162 µM) was 0.858. It also gave a relative viability ([8]; first compound 0.1 µM) of 0.74, a relative viability ([8]; first compound 0.3162 µM) of 1.04 and a relative viability ([8]; first compound 1 µM) of 0.795. The relative viability ([9]; first compound 0.01 µM) was 0.599, the relative viability ([9]; first compound 0.03162 µM) was 0.646 and the relative viability ([9]; first compound 0.1 µM) was 0.282. The relative viability ([9]; first compound 0.3162 µM) was 0.579, the relative viability ([9]; first compound 1 µM) was 0.43 and the relative viability ([10]; first compound 0.01 µM) was 0.68. For the same compound, the relative viability ([10]; first compound 0.03162 µM) was 0.754, the relative viability ([10]; first compound 0.1 µM) was 0.728 and the relative viability ([10]; first compound 0.3162 µM) was 0.779. For the same compound, the relative viability ([10]; first compound 1 µM) was 0.702, the relative viability ([11]; first compound 0.01 µM) was 0.33 and the relative viability ([11]; first compound 0.03162 µM) was 0.296. It also gave a relative viability ([11]; first compound 0.3162 µM) of 0.332, a relative viability ([11]; first compound 1 µM) of 0.314 and a relative viability ([12]; first compound 0.01 µM) of 0.689. It also gave a relative viability ([12]; first compound 0.03162 µM) of 0.739, a relative viability ([12]; first compound 0.1 µM) of 0.302 and a relative viability ([12]; first compound 0.3162 µM) of 0.747. The relative viability ([12]; first compound 1 µM) was 0.745, the relative viability ([13]; first compound 0.01 µM) was 0.472 and the relative viability ([13]; first compound 0.03162 µM) was 0.507. For the same compound, the relative viability ([13]; first compound 0.1 µM) was 0.496, the relative viability ([13]; first compound 0.3162 µM) was 0.526 and the relative viability ([13]; first compound 1 µM) was 0.45. The relative viability ([14]; first compound 0.01 µM) was 0.565, the relative viability ([14]; first compound 0.03162 µM) was 0.572 and the relative viability ([14]; first compound 0.1 µM) was 0.311. It also gave a relative viability ([14]; first compound 0.3162 µM) of 0.69, a relative viability ([14]; first compound 1 µM) of 0.545 and a relative viability ([15]; first compound 0.01 µM) of 0.674. For the same compound, the relative viability ([15]; first compound 0.03162 µM) was 0.807, the relative viability ([15]; first compound 0.1 µM) was 0.774 and the relative viability ([15]; first compound 0.3162 µM) was 0.688. It also gave a relative viability ([15]; first compound 1 µM) of 0.67, a relative viability ([16]; first compound 0.01 µM) of 0.456 and a relative viability ([16]; first compound 0.03162 µM) of 0.536. The relative viability ([16]; first compound 0.1 µM) was 0.424, the relative viability ([16]; first compound 0.3162 µM) was 0.394 and the relative viability ([16]; first compound 1 µM) was 0.411. The relative viability ([17]; first compound 0.01 µM) was 0.284, the relative viability ([17]; first compound 0.03162 µM) was 0.299 and the relative viability ([17]; first compound 0.1 µM) was 0.235. The relative viability ([17]; first compound 0.3162 µM) was 0.229, the relative viability ([17]; first compound 1 µM) was 0.323 and the relative viability ([18]; first compound 0.01 µM) was 0.748. For the same compound, the relative viability ([18]; first compound 0.03162 µM) was 0.774, the relative viability ([18]; first compound 0.1 µM) was 0.748 and the relative viability ([18]; first compound 0.3162 µM) was 0.796. It also gave a relative viability ([18]; first compound 1 µM) of 0.834, a relative viability ([19]; first compound 0.01 µM) of 1.02 and a relative viability ([19]; first compound 0.03162 µM) of 0.911. For the same compound, the relative viability ([19]; first compound 0.1 µM) was 0.907, the relative viability ([19]; first compound 0.3162 µM) was 0.987 and the relative viability ([19]; first compound 1 µM) was 0.934. It also gave a relative viability ([20]; first compound 0.01 µM) of 0.503, a relative viability ([20]; first compound 0.03162 µM) of 0.392 and a relative viability ([20]; first compound 0.1 µM) of 0.522. For the same compound, the relative viability ([20]; first compound 0.3162 µM) was 0.42, the relative viability ([20]; first compound 1 µM) was 0.461 and the relative viability ([21]; first compound 0.01 µM) was 0.519. The relative viability ([21]; first compound 0.03162 µM) was 0.631, the relative viability ([21]; first compound 0.1 µM) was 0.535 and the relative viability ([21]; first compound 0.3162 µM) was 0.769. The relative viability ([21]; first compound 1 µM) was 0.592, the relative viability ([22]; first compound 0.01 µM) was 0.716 and the relative viability ([22]; first compound 0.03162 µM) was 0.845. The relative viability ([22]; first compound 0.1 µM) was 0.716, the relative viability ([22]; first compound 0.3162 µM) was 0.716 and the relative viability ([22]; first compound 1 µM) was 0.716.

— the supplement of paper PMC10307832
